Test results reported in patent US10077261B2, “Imidazolin-5-one derivative useful as FASN inhibitors for the treatment of cancer” (Janssen Pharmaceutica NV, priority 2012, dated 2018).

Legend:
A2780 ovarian cells [1] = assay: A2780 ovarian cell proliferation assay in lipid reduced medium, without palmitate (MTT); type: cell-based; conditions: Homo sapiens, A2780, 96 h; read-out: pIC50 A2780 Ovarian Cell, Without Palmitate (converted)
Protocol: (§1) The biological assays described below correspond to comparative assays for ovarian cell proliferation. […] Compounds active in the absence of palmitate would not be expected to be active in the control.
(§2) 2500 cells were seeded in a 96-well clear well plate in 200 μL RPMI1640 with 10% Fetal Calf Serum (Hyclone), and incubated at 37° C., 5% CO2. Blanks were wells without cells. The next day the culture medium was aspirated and replaced by 160 μL culture medium with 10% Lipid-Reduced Serum (LRS, Hyclone). 20 μL test compound (at concentrations of 30 μM, 10 μM, 3 μM, 1 μM, 0.30 μM, 0.10 μM, 0.03 μM and 0.01 μM)/DMSO dilution followed by 20 μL ethanol-BSA solution were added to a final concentrations of 0.2% DMSO, 0.2% fatty-acid-free BSA, 0.25% ethanol. After 96 h incubation an MTT assay was performed. The absorbance was measured at 544 nm on a SPECTRAMAX brand microplate reader (Molecular Devices).
where mLC and mHC were the means of the low control wells and high control wells on the plate, after manual exclusion of outliers. A plot of Controlmin versus test compound concentration was fitted to a 4-parameter logistic curve using a non-linear least squares regression method.
(§3) Representative compounds of the present invention were tested according to the procedure as described in Biological Example 3 above, with results as listed in Table 8, below.

[2] = target: T1, hFASN enzyme (full length) (Homo sapiens, UniProt P49327); assay: Fatty Acid Synthase (FASN) inhibition scintillation proximity assay; type: biochemical; conditions: for inhibition at 10 µM: read-out: Human FASN % inhibition @ 10 μM, 10 μM test compound; for IC50: read-out: Human FASN pIC50 (converted)
T1 construct: 10 μL hFASN enzyme (full length, 300 ng, purified in house); made in house
T1 sequence (P49327 whole entry): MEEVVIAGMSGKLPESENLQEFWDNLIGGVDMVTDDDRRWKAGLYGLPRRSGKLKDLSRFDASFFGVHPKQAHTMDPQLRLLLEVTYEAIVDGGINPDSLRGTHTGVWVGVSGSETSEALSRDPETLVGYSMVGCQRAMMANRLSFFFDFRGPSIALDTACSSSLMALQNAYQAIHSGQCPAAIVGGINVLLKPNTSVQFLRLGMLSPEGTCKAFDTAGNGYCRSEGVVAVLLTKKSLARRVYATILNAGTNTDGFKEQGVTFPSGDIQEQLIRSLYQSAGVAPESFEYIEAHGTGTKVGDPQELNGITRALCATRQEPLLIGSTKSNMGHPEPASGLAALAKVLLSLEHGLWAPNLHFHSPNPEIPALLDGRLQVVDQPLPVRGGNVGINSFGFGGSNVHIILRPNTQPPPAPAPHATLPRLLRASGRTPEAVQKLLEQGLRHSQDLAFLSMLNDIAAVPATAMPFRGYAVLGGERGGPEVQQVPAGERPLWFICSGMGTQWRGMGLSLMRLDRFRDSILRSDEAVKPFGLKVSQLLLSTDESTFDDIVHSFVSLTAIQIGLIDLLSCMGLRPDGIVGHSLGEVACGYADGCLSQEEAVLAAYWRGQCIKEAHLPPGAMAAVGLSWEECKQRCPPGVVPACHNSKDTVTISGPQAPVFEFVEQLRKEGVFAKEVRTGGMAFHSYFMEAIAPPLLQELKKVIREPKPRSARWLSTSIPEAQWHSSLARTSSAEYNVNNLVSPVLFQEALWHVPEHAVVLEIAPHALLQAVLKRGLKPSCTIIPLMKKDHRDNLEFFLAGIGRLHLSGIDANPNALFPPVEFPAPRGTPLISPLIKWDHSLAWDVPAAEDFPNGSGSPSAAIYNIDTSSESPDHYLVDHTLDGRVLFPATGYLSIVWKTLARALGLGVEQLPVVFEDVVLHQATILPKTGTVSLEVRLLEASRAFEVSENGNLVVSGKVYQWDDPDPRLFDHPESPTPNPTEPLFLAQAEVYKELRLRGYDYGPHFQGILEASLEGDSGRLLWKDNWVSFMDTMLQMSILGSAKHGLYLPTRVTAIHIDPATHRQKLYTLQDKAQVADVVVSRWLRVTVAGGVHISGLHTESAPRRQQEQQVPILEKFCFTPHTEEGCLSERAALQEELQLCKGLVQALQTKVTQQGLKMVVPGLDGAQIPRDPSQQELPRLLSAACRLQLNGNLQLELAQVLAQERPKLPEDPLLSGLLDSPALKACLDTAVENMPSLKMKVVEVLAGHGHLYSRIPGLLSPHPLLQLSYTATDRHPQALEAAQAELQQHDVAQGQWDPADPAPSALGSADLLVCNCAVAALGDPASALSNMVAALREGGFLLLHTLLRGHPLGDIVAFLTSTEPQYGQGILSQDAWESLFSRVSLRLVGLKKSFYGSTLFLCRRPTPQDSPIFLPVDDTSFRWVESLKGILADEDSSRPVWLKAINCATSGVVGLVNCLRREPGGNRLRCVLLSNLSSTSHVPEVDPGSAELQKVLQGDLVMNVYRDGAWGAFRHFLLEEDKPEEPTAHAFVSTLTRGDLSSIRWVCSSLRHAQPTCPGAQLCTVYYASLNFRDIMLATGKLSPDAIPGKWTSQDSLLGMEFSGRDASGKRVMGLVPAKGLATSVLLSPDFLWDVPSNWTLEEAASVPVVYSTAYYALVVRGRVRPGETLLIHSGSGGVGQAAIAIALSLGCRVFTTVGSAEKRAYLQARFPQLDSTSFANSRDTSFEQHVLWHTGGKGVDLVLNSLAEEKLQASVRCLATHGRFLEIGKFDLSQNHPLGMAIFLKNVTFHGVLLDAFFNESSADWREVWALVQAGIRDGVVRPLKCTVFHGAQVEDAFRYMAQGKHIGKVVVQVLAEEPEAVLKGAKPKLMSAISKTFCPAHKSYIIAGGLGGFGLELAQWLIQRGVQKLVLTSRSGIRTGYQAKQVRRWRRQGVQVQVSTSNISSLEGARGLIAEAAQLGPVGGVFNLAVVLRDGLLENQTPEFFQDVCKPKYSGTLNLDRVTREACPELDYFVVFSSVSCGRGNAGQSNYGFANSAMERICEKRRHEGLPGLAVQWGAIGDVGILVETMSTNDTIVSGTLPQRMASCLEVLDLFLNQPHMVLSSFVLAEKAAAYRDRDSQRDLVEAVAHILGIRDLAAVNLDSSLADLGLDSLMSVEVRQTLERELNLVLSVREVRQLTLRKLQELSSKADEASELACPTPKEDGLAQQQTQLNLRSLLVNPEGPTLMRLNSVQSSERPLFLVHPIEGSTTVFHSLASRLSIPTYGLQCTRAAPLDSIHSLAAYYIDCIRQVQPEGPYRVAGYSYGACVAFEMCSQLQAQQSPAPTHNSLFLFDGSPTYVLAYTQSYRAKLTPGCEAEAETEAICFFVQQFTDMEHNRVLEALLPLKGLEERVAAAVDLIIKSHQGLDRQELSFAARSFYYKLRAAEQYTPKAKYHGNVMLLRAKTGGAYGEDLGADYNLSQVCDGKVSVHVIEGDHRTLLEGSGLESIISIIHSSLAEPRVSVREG
How it was run: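 Scintillation proximity format: in-house full-length enzyme, 300 ng per well, pH 7.5 phosphate/DTT buffer, ³H-acetyl-CoA and malonyl-CoA. Emission counted on LEADseeker at 610 nm at least 24 h after stopping.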

A2780 ovarian cells [3] = assay: A2780 ovarian cell proliferation assay in lipid reduced medium, with palmitate (MTT); type: cell-based; conditions: Homo sapiens, A2780, 96 h; read-out: pIC50 A2780 Ovarian Cell, With Palmitate (converted)
Protocol: as §1
as §2, with “palmitate-BSA” for “ethanol-BSA”, “DMSO, 25 μM palmitate (Sigma, P0500, 10 mM stock solution in ethanol)” for “DMSO,”, “incubation,” for “incubation”
A best fit curve was fitted by a minimum sum of squares method, plotting Controlmin versus test compound concentration.
as §3

IC50 (A2780 ovarian cells [1]) [µM]	inhibition at 10 µM [2] [%]	IC50 [2] [µM]	IC50 (A2780 ovarian cells [3]) [µM]	SMILES
> 10	54	~6.31	> 10	O=C(C1CC1)N1CC(CN2C(=O)C3(CC3)N=C2c2ccc(-c3ccc4nncn4c3)cc2)C1 [compound 539, 6-{[1-(Cyclopropylcarbonyl)azetidin-3-yl]methyl}-5-(4-[1,2,4]triazolo[4,3-a]pyridin-6-ylphenyl)-4,6-diazaspiro[2.4]hept-4-en-7-one]
4.47	64	5.01	9.33	O=C(C1CC1)N1CC(CN2C(=O)C3(CC3)N=C2c2ccc(-c3ccc4ccc(Cl)nc4c3)cc2)C1 [compound 540, 5-[4-(2-Chloroquinolin-7-yl)phenyl]-6-{[1-(cyclopropylcarbonyl)azetidin-3-yl]methyl}-4,6-diazaspiro[2.4]hept-4-en-7-one]
3.8	83	1.78	> 10	O=C(C1CC1)N1CC(CN2C(=O)C3(CC3)N=C2c2ccc(-c3ccc4nn(CCO)cc4c3)cc2)C1 [compound 549, 6-{[1-(Cyclopropylcarbonyl)azetidin-3-yl]methyl}-5-{4-[2-(2-hydroxyethyl)-2H-indazol-5-yl]phenyl}-4,6-diazaspiro[2.4]hept-4-en-7-one]
3.47	80	1.82	~10	CC(C)n1ncc2ccc(-c3ccc(C4=NC5(CC5)C(=O)N4CC4CN(C(=O)C5CC5)C4)cc3)cc21 [compound 550, 6-{[1-(Cyclopropylcarbonyl)azetidin-3-yl]methyl}-5-{4-[1-(1-methylethyl)-1H-indazol-6-yl]phenyl}-4,6-diazaspiro[2.4]hept-4-en-7-one]
1.7	66	4.9	> 10	O=C(C1CC1)N1CC(CN2C(=O)C3(CC3)N=C2c2ccc(-c3cc4cnn(CCO)c4cc3F)cc2)C1 [compound 552, 6-{[1-(Cyclopropylcarbonyl)azetidin-3-yl]methyl}-5-{4-[6-fluoro-1-(2-hydroxyethyl)-1H-indazol-5-yl]phenyl}-4,6-diazaspiro[2.4]hep-t-4-en-7-one]
2.75	85	1.35	> 10	O=C(C1CC1)N1CC(CN2C(=O)C3(CC3)N=C2c2ccc(-c3cc4cn(CCO)nc4cc3F)cc2)C1 [compound 553, 6-{[1-(Cyclopropylcarbonyl)azetidin-3-yl]methyl}-5-{4-[6-fluoro-2-(2-hydroxyethyl)-2H-indazol-5-yl]phenyl}-4,6-diazaspiro[2.4]hept-4-en-7-one]
~5.13	75	1.86	> 10	Cc1cc2ccc(-c3ccc(C4=NC5(CC5)C(=O)N4CC4CN(C(=O)C5CC5)C4)cc3)cc2nc1Cl [compound 555, 5-[4-(2-Chloro-3-methylquinolin-7-yl)phenyl]-6-{[1-(cyclopropylcarbonyl)azetidin-3-yl]methyl}-4,6-diazaspiro[2.4]hept-4-en-7-one]
5.89	61	5.25	> 10	O=C(C1CC1)N1CC(CN2C(=O)C3(CC3)N=C2c2ccc(-c3ccc4c(cnn4CCO)c3)cc2)C1 [compound 556, 6-{[1-(Cyclopropylcarbonyl)azetidin-3-yl]methyl}-5-{4-[1-(2-hydroxyethyl)-1H-indazol-5-yl]phenyl}-4,6-diazaspiro[2.4]hept-4-en-7-one]
9.33	59	6.03	> 10	Cc1cc(Cl)nc2cc(-c3ccc(C4=NC5(CC5)C(=O)N4CC4CN(C(=O)C5CC5)C4)cc3)ccc12 [compound 559, 5-[4-(2-Chloro-4-methylquinolin-7-yl)phenyl]-6-{[1-(cyclopropylcarbonyl)azetidin-3-yl]methyl}-4,6-diazaspiro[2.4]hept-4-en-7-one]

Second part, the compound before the results:

SMILES	IC50 (A2780 ovarian cells [1]) [µM]	inhibition at 10 µM [2] [%]	IC50 [2] [µM]	IC50 (A2780 ovarian cells [3]) [µM]
COc1ccc2cc(-c3ccc(C4=NC5(CC5)C(=O)N4CC4CN(C(=O)C5(O)CC5)C4)c(F)c3)ccc2c1 [compound 366, 5-(2-fluoro-4-(6-methoxynaphthalen-2-yl)phenyl)-6-((1-(1-hydroxycyclopropanecarbonyl)azetidin-3-yl)methyl)-4,6-diazaspiro[2.4]hept-4-en-7-one]	~0.00562	89	0.0617	0.562
Cc1cc(-c2ccc3c(cnn3C)c2)ccc1C1=NC2(CC2)C(=O)N1CC1CN(C(=O)c2nccs2)C1 [compound 518, 5-[2-Methyl-4-(1-methyl-1H-indazol-5-yl)phenyl]-6-{[1-(1,3-thiazol-2-ylcarbonyl)azetidin-3-yl]methyl}-4,6-diazaspiro[2.4]hept-4-en-7-one]	~3.98	62	~4.68	~4.07
O=C(C1CC1)N1CC(CN2C(=O)C3(CC3)N=C2c2ccc(-c3ccc4c(cnn4C4CC4)c3)cc2F)C1 [compound 522, 6-{[1-(Cyclopropylcarbonyl)azetidin-3-yl]methyl}-5-[4-(1-cyclopropyl-1-indazol-5-yl)-2-fluorophenyl]-4,6-diazaspiro[2.4]hept-4-en-7-one]	2.88	79	1.66	> 10
O=C(C1CC1)N1CC(CN2C(=O)C3(CC3)N=C2c2ccc(-c3ccc4nn(CC5CC5)cc4c3)cc2F)C1 [compound 524, 6-{[1-(Cyclopropylcarbonyl)azetidin-3-yl]methyl}-5-{4-[2-(cyclopropylmethyl)-2H-indazol-5-yl]-2-fluorophenyl}-4,6-diazaspiro[2.4]hept-4-en-7-one]	4.9	73	2.09	> 10
CC(C)n1ccc2cc(-c3ccc(C4=NC5(CC5)C(=O)N4CC4CN(C(=O)C5CC5)C4)c(F)c3)ccc21 [compound 525, 6-{[1-(Cyclopropylcarbonyl)azetidin-3-yl]methyl}-5-{2-fluoro-4-[1-(1-methylethyl)-1H-indol-5-yl]phenyl}-4,6-diazaspiro[2.4]hept-4-en-7-one]	4.9	84	1.05	> 10
O=C(C1CC1)N1CC(CN2C(=O)C3(CC3)N=C2c2ccc(-c3ccc4c(cnn4CCO)c3)cc2F)C1 [compound 527, 6-{[1-(Cyclopropylcarbonyl)azetidin-3-yl]methyl}-5-{2-fluoro-4-[1-(2-hydroxyethyl)-1H-indazol-5-yl]phenyl}-4,6-diazaspiro[2.4]hept-4-en-7-one]	~1.95	83	1.58	> 10
O=C(C1CC1)N1CC(CN2C(=O)C3(CC3)N=C2c2ccc(-c3cc4ccccc4nc3O)cc2)C1 [compound 532, 6-{[1-(Cyclopropylcarbonyl)azetidin-3-yl]methyl}-5-[4-(2-hydroxyquinolin-3-yl)phenyl]-4,6-diazaspiro[2.4]hept-4-en-7-one]	> 10	58	5.37	> 10
N#CCCn1ncc2cc(-c3ccc(C4=NC5(CC5)C(=O)N4CC4CN(C(=O)C5CC5)C4)cc3)ccc21 [compound 533, 3-{5-[4-(6-{[1-(Cyclopropylcarbonyl)azetidin-3-yl]methyl}-7-oxo-4,6-diazaspiro[2.4]hept-4-en-5-yl)phenyl]-1H-indazol-1-yl}propanenitrile]	> 10	54	7.59	> 10
Cc1cc(Cl)c2ccc(-c3ccc(C4=NC5(CC5)C(=O)N4CC4CN(C(=O)C5CC5)C4)cc3)cc2n1 [compound 535, 5-[4-(4-Chloro-2-methylquinolin-7-yl)phenyl]-6-{[1-(cyclopropylcarbonyl)azetidin-3-yl]methyl}-4,6-diazaspiro[2.4]hept-4-en-7-one]	6.61	53	–	7.76
